US5830871A, “Inhibitors of E-, P- and L-selectin binding” (The Scripps Research Institute, priority 1996, dated 1998)

Tests used:
[1] = target: T1, E-selectin (Homo sapiens, UniProt P16581); assay: Inhibition of SLe^x glycoconjugate / HL-60 cell binding to immobilized sol-E-selectin
T1 construct: A 1.67 kbp DNA fragment encoding a truncated structural gene for E-selectin; made in house
T1 sequence (P16581 22-556 limits assumed): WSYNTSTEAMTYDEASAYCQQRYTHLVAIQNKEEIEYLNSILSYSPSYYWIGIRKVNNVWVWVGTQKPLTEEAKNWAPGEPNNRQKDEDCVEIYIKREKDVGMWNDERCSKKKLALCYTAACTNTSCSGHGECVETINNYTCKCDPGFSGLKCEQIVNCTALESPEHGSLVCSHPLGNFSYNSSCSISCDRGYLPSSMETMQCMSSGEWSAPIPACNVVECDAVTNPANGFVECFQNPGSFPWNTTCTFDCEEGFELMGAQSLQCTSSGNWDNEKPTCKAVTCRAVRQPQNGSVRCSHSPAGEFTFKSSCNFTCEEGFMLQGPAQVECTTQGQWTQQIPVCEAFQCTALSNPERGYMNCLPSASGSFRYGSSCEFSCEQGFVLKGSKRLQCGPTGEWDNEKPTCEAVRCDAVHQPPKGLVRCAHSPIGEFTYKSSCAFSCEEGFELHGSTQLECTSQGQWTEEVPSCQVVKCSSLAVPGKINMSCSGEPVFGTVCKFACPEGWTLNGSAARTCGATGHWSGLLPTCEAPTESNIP
Protocol: Analysis of compound 6 (class II compound; FIG. 1) as an inhibitor of SLe^x glycoconjugate binding to E-selectin provides an IC50 value of 0.8 mM, according to the method of S. A. DeFrees, et al., viz. J. Am. Chem. Soc. 1995, 117, 66.
A soluble form of E-selectin (sol-E-selectin) was prepared for inhibition assays of the SLe^x Mimetics. A 1.67 kbp DNA fragment encoding a truncated structural gene for E-selectin was isolated by PCR amplification of CDNA derived from messenger RNA that was isolated from IL-1 activated human endothelial cells. The CDNA was subcloned into the vector pBluescript II and was transfected into 293 cells. The clones were screened for the production of sol-E-selectin, and the clone 293#3 was selected as the stable cell line that produced the greatest amount of sol-E-selectin per cell. Sol-E-selectin was produced on a large scale from this line using a Nunc cell factory. Recombinant sol-E-selectin was isolated from the media using immunoaffinity chromatography.
The SLe^x Mimetics were assayed for ability to block the adhesion of HL-60 cells to immobilized sol-E-selectins (either on a polymeric column solid support or onto the surface of the assay vessle). Immobilized E-selectin was incubated first with inhibitor and then with HL-60 cells. The bound cells were lysed, and myeloperoxidase released from the bound cells was detected with o-phenylenediamine and hydrogen peroxide. The percentage inhibition was determined by comparing the absorbance of the resulting solution at 492 nm to that in wells containing no inhibitor.
Each data point in the E-selectin assay is a direct measure of cells bound using a quantitative enzyme assay. The values were then plotted to give the titration curve and IC50 values. On average, five assays were performed for each inhibitor, and the results were highly reproducible. […] The IC50 values reported here is derived from all the data. Procedure described herein is adopted from Wong et. al. J. Am. Chem. Soc. 1995, 177, 66-79.

[2] = system: L-selectin; assay: Inhibition of L-selectin; format: binding
[3] = system: P-selectin; assay: Inhibition of P-selectin; format: binding
[4] = blood stream; glycosidase; cited from earlier work
[5] = system: E-selectin; settings: in vitro; cited from earlier work
[6] = cited from earlier work
[7] = system: lung injury in rats; settings: in vivo, read-out: IC50 value in vivo for protecting against lung injury; cited from earlier work
[8] = system: E-selectin; settings: cited from earlier work
[9] = system: neutrophil/P-selection-dependent rat model; settings: cited from earlier work; for lung injury / tissue accumulation of neutrophils: intravenous infusion of up to 200 μg, cobra venom
[10] = system: adhesion of neutophils to endothelial cells; settings: cited from earlier work

Compound	IC50 [1]	biological activity compared with SLe^x ([1]; compared with SLe^x (0.50 mM))	inhibition of L-selectin ([2]; @ 3 mM)	L-selectin inhibition activity compared with sialyl Lewis X ([2]; compared with sialyl lewis X)	inhibition of P-selectin ([3]; @ 3 mM)	P-selectin inhibition activity compared with sialyl Lewis X ([3]; compared with sialyl lewis X)	stability in the blood [4]	affinity for E-selectin [5]	oral activity [6]	IC50 [7]	SLe^x/E-selectin interaction [8]	effective intravenous concentration ([9]; calculated from concentrations used, 200 μg)	lung injury [9]	tissue accumulation of neutrophils [9]	adhesion of neutrophils to endothelial cells [10]
O=C(COP(=O)(O)O)[C@@H](O)[C@H](O)C[C@H]1O[C@H](CO)[C@@H](O)[C@H](O)[C@@H]1O [Compound 6]	800 µM	almost the same biological activity as SLe^x	> 80%	better or equal to that of sialyl lewis X	> 80%	better or equal to that of sialyl lewis X	–	–	–	–	–	–	–	–	–
CC(=O)NC1C(O)CC(OC2C(O)C(CO)OC(OC3C(CO)OC(O)C(NC(C)=O)C3OC3OC(C)C(O)C(O)C3O)C2O)(C(=O)O)OC1C(O)C(O)CO (stereo not drawn) [SLe^x, NeuAcα2→3Galβ1→4(Fucα1→3GlcNAc]	500 µM	–	–	–	–	–	unstable in the blood stream	relatively weak	orally inactive	~1 µM	inhibits the SLe^x /E-selectin interaction	less than 1 μM	dramatically reduced lung injury	diminished tissue accumulation of neutrophils	blocks adhesion of neutophils to endothelial cells
NeuAcα2→3Galβ1→4(Fucα1→3)GlcNAcβ1, 3Galβ- [pentamer]	–	–	–	–	–	–	–	–	–	–	–	–	dramatically reduced lung injury	diminished tissue accumulation of neutrophils	–
